Data published in PubChem BioAssay AID381 (SGCOxCompounds, 2006).

Target: Aldo-keto reductase family 1 member C4 (Homo sapiens) (UniProt P17516)
Test: ligand-induced stabilization of human AKR1C4 – biophysical, DSF, SYPRO orange, with or without NADPH (AID 381)
Details: recombinant AKR1C4, DSF thermal shift, at 10 µM, buffer 10 mM HEPES, active compounds read high
[1] = pH 7.5, NaCl 150 mM, protein 2 µM
[2] = pH 7.5, NaCl 150 mM, NADPH 20 µM, protein 2 µM

Aldo-keto reductase family 1 member C4 (Homo sapiens), sequence (P17516 whole entry, looked up): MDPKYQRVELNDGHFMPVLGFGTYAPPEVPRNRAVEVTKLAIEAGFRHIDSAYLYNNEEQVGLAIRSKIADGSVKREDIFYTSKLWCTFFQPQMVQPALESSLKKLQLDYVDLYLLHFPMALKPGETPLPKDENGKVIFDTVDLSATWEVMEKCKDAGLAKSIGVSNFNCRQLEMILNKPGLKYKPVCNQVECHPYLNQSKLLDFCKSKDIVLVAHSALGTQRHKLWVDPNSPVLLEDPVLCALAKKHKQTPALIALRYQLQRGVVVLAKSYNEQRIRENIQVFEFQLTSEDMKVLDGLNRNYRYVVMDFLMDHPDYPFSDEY

Structure (SMILES) | Tm shift [1] [Celsius] | Tm shift [2] [Celsius] | also measured
O=c1cc(-c2ccccc2)oc2cc(O)c(O)c(O)c12 | – | – | Tm shift (NaCl 150 mM, pH 7.5, protein 2 µM): 3.5 Celsius
O=c1cc(-c2ccccc2)oc2cc(O)cc(O)c12 | 2.3 | – | –
CC1(C)[C@@H](O)CC[C@]2(C)[C@H]3C(=O)C=C4[C@@H]5C[C@@](C)(C(=O)O)CC[C@]5(C)CC[C@@]4(C)[C@]3(C)CC[C@@H]12 | 5 | – | –
O=c1cc(-c2ccc(O)cc2)oc2cc(O)cc(O)c12 | 2.2 | – | –
CC(=O)[C@H]1CC[C@H]2[C@@H]3CCC4=CC(=O)CC[C@]4(C)[C@H]3CC[C@]12C | – | 4.5 | –
Oc1cc(Cl)ccc1Oc1ccc(Cl)cc1Cl | – | 2.3 | –
CC1(C)[C@@H](OC(=O)CCC(=O)O)CC[C@]2(C)[C@H]3C(=O)C=C4[C@@H]5C[C@@](C)(C(=O)O)CC[C@]5(C)CC[C@@]4(C)[C@]3(C)CC[C@@H]12 | 7.3 | – | –
CC1(C)[C@@H](O)CC[C@]2(C)[C@H]3C(=O)C=C4[C@H]5C[C@@](C)(C(=O)O)CC[C@]5(C)CC[C@@]4(C)[C@]3(C)CC[C@@H]12 | 5.2 | – | –
O=C1C(=O)C(c2ccc(O)cc2O)Oc2cc(O)cc(O)c21 (configuration not stated) | 2.1 | – | –
C[C@]12CC[C@H]3C(=CCc4cc(O)ccc43)[C@@H]1CCC2=O | – | 4.5 | –
CC1CC(C)(C)NC(=S)N1CCCC(=O)N1CCN(C(c2ccccc2)c2ccc(Cl)cc2)CC1 (configuration not stated) | 2.4 | – | –
C[C@]12CC[C@H]3[C@@H](CCC4=CC(=O)CC[C@@]43C)[C@@H]1CC[C@@H]2O | – | 5.3 | –
